From article PMC5244253, “Phloretin Attenuates Listeria monocytogenes Virulence Both In vitro and In vivo by Simultaneously Targeting Listeriolysin O and Sortase A” (Frontiers in Cellular and Infection Microbiology, 2017)
pIC50, pKd: −log10 of the molar value. Values after ≈ are worked out from the molar mass of the structure shown. Like-named read-outs stand apart in the source and are kept apart here.

Columns and labels:
L. monocytogenes [1] = details: cited from earlier work
[2] = system: L. monocytogenes invasion into Caco-2 cells; test: L. monocytogenes invasion into Caco-2 cells (CFU assay, immunostaining); format: cell-based, Listeria monocytogenes; details: EGDeΔsrtA co-treated or pre-treated with phloretin; Caco-2, 1 h
Experimental: (§1) The Caco-2 cell line was maintained in RPMI-1640 medium with 10% fetal bovine serum, non-essential amino acids and antibiotics in a humidified atmosphere at 37°C with 5% CO2. The cells were routinely adjusted to a concentration of 3 × 10^5 cells per ml, seeded into 24-well plastic culture microplates (3 × 10^5 per microplate) and cultured for 48 h for immunostaining and the determination of intracellular bacterial growth. To assay LDH release, cell monolayers were incubated overnight in culture medium without antibiotics in 96-well plates (2 × 10^4 cells per well).
Caco-2 cells were co-cultured with L. monocytogenes at an MOI of 100. […] In each case, gentamicin (20 μg/ml) was added 30 min after bacterial internalization.
A 0.3% concentration of Triton X-100 was added to permeabilize the cells for 4 min prior to stain the total bacteria (intracellular + extracellular) with a rabbit L. monocytogenes-specific antibody (Abcam) and an Alexa Fluor 488-conjugated chicken anti-rabbit antibody (Molecular Probes).

[3] = Toxicity of phloretin in healthy (uninfected) mice; format: in vivo, BALB/c mice
Experimental: (§2) Overnight cultures of L. monocytogenes were enlarged by culturing into fresh TSB (1:100) at 37°C with shaking until the OD at 600 nm reached 1.0, at which point they were harvested. The cell pellets were washed and suspended in normal saline. To establish an infection model, 200 μL prepared bacterial suspension (1 × 10^8 CFU/ml) was intraperitoneally inoculated into BALB/c mice. The infected mice in the treatment group were subcutaneously administered 150 mg/kg of phloretin 2 h after infection and again at 8-h intervals. The infected mice in the […] group were injected with an equal volume of dimethyl sulfoxide (DMSO) at the same time points. Finally, a group of healthy mice received only phloretin to examine the toxicity of the drug. Each group had 10 mice, and the therapeutic trial lasted for 96 h; survival statistics were collected throughout this period.
(§3) For histopathologic analysis, the mice were euthanized with anesthesia following cervical dislocation at 48 h post-infection. Liver and spleen tissues were removed, fixed with formalin, embedded in paraffin, stained with hematoxylin and eosin and visualized by light microscopy. To analyze the bacterial burden in tissue, the liver and spleen tissues collected from the sacrificed mice were weighed, lysed in 2% Triton X-100 and inoculated onto TSB agar plates at 37°C overnight.

V129A = molecular target: T1, V129A (Listeria monocytogenes serovar 1/2a, UniProt Q8Y8H5, V201A); test: Fluorescence-quenching binding constant (V129A); details: fluorescence-quenching spectroscopy, read-out: binding constant KA (converted)
T1 construct: GST (inferred from vector pGEX-6P-1) (N); made in house
Experimental: (§4) The binding constant (KA) for phloretin with SrtA was measured using a fluorescence-quenching method. A 280-nm excitation wavelength with a 5-nm band-pass and a 345-nm emission wavelength with a 10-nm band-pass were used for the measurements. The details of the protocol used to perform the measurements were as previously described (Bandyopadhyay et al., [2002]; Jurasekova et al., [2009]).

T90A = molecular target: T2, T90A (Listeria monocytogenes serovar 1/2a, UniProt Q8Y8H5, T162A); test: Fluorescence-quenching binding constant (T90A); details: fluorescence-quenching spectroscopy, read-out: binding constant KA (converted)
T2 construct: GST (inferred from vector pGEX-6P-1) (N); made in house
Experimental: as §4

L. monocytogenes EGDe = test: Susceptibility assays (MIC, growth curve)
[4] = system: L. monocytogenes-induced cytotoxicity in Caco-2 cells; test: LDH release assay of infected Caco-2 cells; format: cell-based, Listeria monocytogenes; details: all phloretin-treated groups vs infected untreated control; 5 h, MOI 100
Experimental: as §1
Caco-2 cells grown in 96-well microplates were infected with L. monocytogenes pre-exposed or not to phloretin at a multiplicity of infection (MOI) of 100. Following infections with discriminatory concentrations of phloretin for 5 h, the LDH released into the supernatants of the co-culture system was determined using a Cytotoxicity Detection Kit (LDH; Roche, Basel, Switzerland) as previously described (Wang et al., [2015a]).

hly = test: Agar assay and β-galactosidase activity analysis (phly-lacZ); format: cell-based, Listeria monocytogenes; details: phly-lacZ-containing bacteria; agar assay 0–116.68 μM and β-galactosidase activity
Experimental: The phly-lacZ plasmid was a kind gift from Dr. Birgitte Kallipolitis (University of Southern Denmark) and was electroporated into EGDe cells to perform an agar assay as described previously (Kastbjerg et al., [2010]). A 25-ml aliquot of TSB agar was melted at 44°C and supplemented with X-gal (150 μg/ml) and kanamycin (50 μg/ml) before being thoroughly mixed with 1 ml of an overnight culture of bacteria containing the phly-lacZ plasmid. Nine wells were made per plate following desiccation in Class II biosafety cabinet at room temperature. A 30-μl aliquot of phloretin or benzalkonium bromide at varying concentrations was added to each well. The plates were incubated for 48 h at 37°C. The β-galactosidase activities of the phly-lacZ-containing bacteria treated with various concentrations of phloretin were quantitatively determined as previously described (Larsen et al., [2006]).

WT-SrtA [5] = molecular target: T3, WT-SrtA (Listeria monocytogenes serovar 1/2a, UniProt Q8Y8H5); test: Sortase A enzyme activity inhibition assay (WT-SrtA)
Experimental: Following another incubation at 37°C for 1 h, the fluorescence intensity of each sample was determined at emission and excitation wavelengths of 350 and 520 nm, respectively, in a black 96-well plate.

LLO = format: cell-based, Listeria monocytogenes
Caco-2 cells = test: Cytotoxicity of phloretin in Caco-2 cells; format: cell-based; details: phloretin treatment alone
WT-SrtA [6] = molecular target: T3, WT-SrtA; test: Fluorescence-quenching binding constant (WT-SrtA); design: GST (inferred from vector pGEX-6P-1) (N); made in house
Experimental: as §4

listeriolysin O (LLO) = molecular target: T4, listeriolysin O (LLO) (Listeria monocytogenes serovar 1/2a, UniProt P13128); test: Hemolysis assay of L. monocytogenes culture supernatants; format: cell-based
T4 construct: endogenous in cells; host or cells: L. monocytogenes EGDe wild-type strain BUG 1600
Experimental: Overnight cultures of EGDe were enlarged and cultured into fresh TSB (1:100) at 37°C for 2 h with shaking and then treated with various concentrations of phloretin until the optical density (OD) at 600 nm reached 2.0, at which point they were harvested (8000 g, 5 min). The bacterial culture supernatants were incubated with rabbit erythrocytes (final concentration of 2.5%) in PBS (35 mM Na3PO4, 125 mM NaCl, 0.5 mg/mL BSA, pH 5.5) at 37°C for 30 min, and then the hemolytic activity of each sample was determined by measuring the release of hemoglobin in supernatants at an OD of 543 nm after centrifugation (8000 g, 1 min).
To examine the direct effect of phloretin on hemolysis induced by bacterial culture supernatants, the hemolytic activities of bacterial culture supernatants pre-incubated with various concentrations of phloretin were determined as described above.

I103A = molecular target: T5, I103A (Listeria monocytogenes serovar 1/2a, UniProt Q8Y8H5, I175A); test: Fluorescence-quenching binding constant (I103A); details: fluorescence-quenching spectroscopy, read-out: binding constant KA (converted)
T5 construct: GST (inferred from vector pGEX-6P-1) (N); made in house
Experimental: as §4

L. monocytogenes [7] = test: Mouse model of L. monocytogenes infection; format: in vivo, BALB/c mice
Experimental: Female 6- to 8-week-old BALB/c mice were purchased from Liao Ning Chang Sheng Biotechnology Co., LTD. The mice used for the experiments were housed and handled in accordance with the guidelines established by the United States National Institutes of Health. These studies were reviewed and approved by the Institutional Animal Care and Use Committee of Jilin University.
as §2, §3

T3 sequence (Q8Y8H5 71-222): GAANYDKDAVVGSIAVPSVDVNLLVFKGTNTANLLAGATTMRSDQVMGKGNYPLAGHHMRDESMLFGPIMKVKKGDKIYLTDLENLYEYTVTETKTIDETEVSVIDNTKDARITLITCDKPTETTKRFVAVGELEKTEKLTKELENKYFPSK
T4 sequence (P13128 25-529): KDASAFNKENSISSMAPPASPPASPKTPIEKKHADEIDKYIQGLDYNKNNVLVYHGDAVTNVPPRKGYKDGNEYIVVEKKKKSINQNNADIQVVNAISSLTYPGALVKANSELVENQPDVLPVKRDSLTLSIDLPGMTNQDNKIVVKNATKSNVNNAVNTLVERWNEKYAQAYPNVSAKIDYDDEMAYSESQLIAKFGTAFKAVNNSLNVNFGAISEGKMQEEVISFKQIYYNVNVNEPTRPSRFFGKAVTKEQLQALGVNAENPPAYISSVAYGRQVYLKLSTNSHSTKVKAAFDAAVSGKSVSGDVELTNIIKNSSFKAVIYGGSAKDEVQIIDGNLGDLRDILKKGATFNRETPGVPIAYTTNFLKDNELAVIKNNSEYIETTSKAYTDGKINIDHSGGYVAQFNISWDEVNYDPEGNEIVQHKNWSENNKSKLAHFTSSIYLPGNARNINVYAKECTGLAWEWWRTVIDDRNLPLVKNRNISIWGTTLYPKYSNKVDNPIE
T5 sequence (Q8Y8H5 71-222 I175A): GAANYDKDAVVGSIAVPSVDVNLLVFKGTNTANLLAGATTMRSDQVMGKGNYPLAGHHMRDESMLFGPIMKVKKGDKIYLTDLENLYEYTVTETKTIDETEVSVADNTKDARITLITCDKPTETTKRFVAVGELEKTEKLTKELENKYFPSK
T1 sequence (Q8Y8H5 71-222 V201A): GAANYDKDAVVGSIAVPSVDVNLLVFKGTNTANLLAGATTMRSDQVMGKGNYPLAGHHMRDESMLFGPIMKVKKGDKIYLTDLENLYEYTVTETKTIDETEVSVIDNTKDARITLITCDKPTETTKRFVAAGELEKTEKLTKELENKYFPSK
T2 sequence (Q8Y8H5 71-222 T162A): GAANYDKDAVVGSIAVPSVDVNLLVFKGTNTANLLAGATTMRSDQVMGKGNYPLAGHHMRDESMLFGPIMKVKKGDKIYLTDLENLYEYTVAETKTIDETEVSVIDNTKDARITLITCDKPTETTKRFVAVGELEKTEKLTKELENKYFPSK

In the case of `O=C(/C=C/c1ccccc1)c1ccccc1` [chalcone], the “protection against L. monocytogenes infection in vitro and in vivo” value (L. monocytogenes [1]; inhibitor of SrtA, ref Li et al., 2016) is listed as “robust protection”.

In the case of `O=c1c(O)c(-c2ccc(O)c(O)c2)oc2cc(O)ccc12` [fisetin], the “protection against L. monocytogenes infection in vitro and in vivo” value (L. monocytogenes [1]; inhibitor of LLO, ref Wang et al., 2015a) is given as “robust protection”.

For `O=C(CCc1ccc(O)cc1)c1c(O)cc(O)cc1O` [phloretin], the “invasion of EGDeΔsrtA (CFU assay)” value [2] was “no difference was observed”, the “survival of mice treated only with phloretin, not infected” value ([3]; 150 mg/kg s.c. at 8-h intervals, 96 h) was “all survived” and the “pathological changes in uninfected mice treated with phloretin” value ([3]; liver and spleen) was “no pathological changes were observed”. For the same compound, the Kd (V129A) was 20.1 µM, the Kd (T90A) was 17.5 µM and the MIC (L. monocytogenes EGDe; Listeria monocytogenes) was 933 µM (≈ 256 µg/mL). The “growth of L. monocytogenes” value (L. monocytogenes EGDe; at the concentrations required for inhibition of LLO expression and SrtA catalytic activity, OD 600 nm) was “not apparently affected”, the “LDH release of EGDe-infected Caco-2 cells” value [4] was “decreased LDH release” and the transcription of hly (hly) was “did not affect the transcription of hly”. The pIC50 (WT-SrtA [5]) was 4.43, the “LLO levels in bacterial culture supernatants and cell pellets” value (LLO) was “reduced in a concentration-dependent manner” and the “cytotoxicity in Caco-2 cells” value (Caco-2 cells) was “did not significantly induce cytotoxicity”. The pKd (WT-SrtA [6]) was 4.90, the “hemolytic activities of culture supernatants of L. monocytogenes EGDe cells after co-culture” value (listeriolysin O (LLO); co-culture with phloretin 7.3–58.34 μM, rabbit erythrocytes) was “dose-dependently decreased” and the “hemolytic activities of bacterial culture supernatants after direct pre-incubation” value (listeriolysin O (LLO); supernatants pre-incubated with various concentrations of phloretin) was “did not affect the hemolytic activities”. For the same compound, the Kd (I103A) was 17.2 µM, the “infected mice that had died by 96 h post-infection” value (L. monocytogenes [7]; 2 × 10^7 CFUs i.p. per mouse, phloretin 150 mg/kg s.c. 2 h after infection and at 8-h intervals) was 25% and the “gross pathological changes in liver and spleen of infected mice” value (L. monocytogenes [7]; 48 h post-infection) was “clearly ameliorated”. For the same compound, the “histopathology (inflammatory lesions) in infected mice” value (L. monocytogenes [7]; 48 h post-infection, liver and spleen sections) was “only minor inflammatory lesions”, the “numbers of viable bacteria colonized in the livers and spleens” value (L. monocytogenes [7]; 48 h post-infection, vs infected mice treated with DMSO) was “significantly lower” and the “survival rate vs control group treated with DMSO” value (L. monocytogenes [7]; phloretin 150 mg/kg s.c., 96 h) was “significantly higher survival rate”.
